# In patent US20260256923A1, “NEW RECRUITMENT ELEMENT OF UBIQUITIN LIGASE AND USE THEREOF” (SHENZHEN LINGGENE BIOTECH CO., LTD., priority 2023, published 2026):
# How the values were obtained:
# NCL [1] = target: T1, NCL (Homo sapiens, UniProt P19338); assay: Biotin-oligonucleotide pull-down from HeLa cell lysate, western blot (NCL); type: binding; parameters: HeLa cervical cancer cells were lysed with an IP lysis solution; endogenous in cells; host or cells: HeLa cell lysate; conditions: 5′-biotin label, 0 nM-20 μM
# Procedure: (§1) HeLa cervical cancer cells were lysed with an IP lysis solution (purchased from Thermo Scientific, Cat. No.: 87788) and then incubated with a CRO (cytosine-rich oligonucleotide, negative control, SEQ ID NO: 13), AS1411, or iSN04 labeled by biotin at the 5′ end at different concentrations (0 nM, 200 nM, 500 nM, 1 μM, 5 μM, 10 μM, and 20 μM) at 4° C. for 6h. Subsequently, streptavidin agarose gel beads (purchased from cytiva, Cat. No.: 17511301) were added, and the mixture was further incubated at 4° C. overnight. After the bound biotin-labeled CRO, AS411, or iSN04 and its captured proteins on the gel beads were washed multiple times with an IP lysis buffer (purchased from Thermo Scientific, Cat. No.: 87788), an SDS-PAGE protein loading buffer (purchased from Beyotime, Cat. No.: P0015) was added, and the mixture was heated to 100° C. and held for 10 min. After centrifugation, the supernatant was collected as a pull-down product. The pull-down product was detected by western blot assay.
# MDM2 [2] = target: T2, MDM2 (Homo sapiens, UniProt Q00987); assay: Biotin-oligonucleotide pull-down from HeLa cell lysate, western blot (MDM2); type: binding; parameters: HeLa cervical cancer cells were lysed with an IP lysis solution; endogenous in cells; host or cells: HeLa; conditions: 5′-biotin label, 0 nM-20 μM
# Procedure: as §1
# Target sequence in this assay (P19338 2-710 partner limits assumed): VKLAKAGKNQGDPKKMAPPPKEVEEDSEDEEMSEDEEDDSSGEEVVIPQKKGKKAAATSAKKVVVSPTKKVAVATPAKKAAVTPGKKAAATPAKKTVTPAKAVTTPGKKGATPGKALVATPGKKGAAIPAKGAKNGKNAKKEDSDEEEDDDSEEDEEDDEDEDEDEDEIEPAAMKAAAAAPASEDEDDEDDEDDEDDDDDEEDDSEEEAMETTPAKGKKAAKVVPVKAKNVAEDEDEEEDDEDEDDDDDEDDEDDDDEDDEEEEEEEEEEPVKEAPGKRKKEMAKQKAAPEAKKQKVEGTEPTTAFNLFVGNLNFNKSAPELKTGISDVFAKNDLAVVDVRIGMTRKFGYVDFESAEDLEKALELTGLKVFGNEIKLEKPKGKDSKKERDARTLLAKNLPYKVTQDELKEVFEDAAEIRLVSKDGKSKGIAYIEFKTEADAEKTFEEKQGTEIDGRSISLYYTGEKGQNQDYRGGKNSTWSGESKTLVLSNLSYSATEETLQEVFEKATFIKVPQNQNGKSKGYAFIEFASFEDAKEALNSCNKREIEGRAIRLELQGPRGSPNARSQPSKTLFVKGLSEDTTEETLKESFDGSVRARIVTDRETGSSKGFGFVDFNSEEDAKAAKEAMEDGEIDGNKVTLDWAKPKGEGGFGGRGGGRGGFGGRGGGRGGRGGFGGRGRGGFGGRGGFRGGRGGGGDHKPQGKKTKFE
# Target sequence in this assay (Q00987 whole entry): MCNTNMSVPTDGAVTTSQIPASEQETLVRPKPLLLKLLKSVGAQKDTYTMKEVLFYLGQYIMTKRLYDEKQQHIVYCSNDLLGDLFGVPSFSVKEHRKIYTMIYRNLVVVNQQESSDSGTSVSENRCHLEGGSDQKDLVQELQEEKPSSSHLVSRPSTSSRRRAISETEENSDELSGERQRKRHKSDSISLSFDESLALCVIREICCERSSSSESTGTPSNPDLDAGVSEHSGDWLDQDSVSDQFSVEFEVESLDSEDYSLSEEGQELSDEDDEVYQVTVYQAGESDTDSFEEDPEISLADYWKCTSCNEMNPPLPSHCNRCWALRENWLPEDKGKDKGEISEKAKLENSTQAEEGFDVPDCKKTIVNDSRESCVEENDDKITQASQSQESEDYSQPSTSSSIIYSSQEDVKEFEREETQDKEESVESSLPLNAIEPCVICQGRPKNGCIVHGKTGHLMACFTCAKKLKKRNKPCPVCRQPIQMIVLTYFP
# NCL [3] = target: T1, NCL; assay: Biotin-oligonucleotide pull-down with recombinant proteins (NCL); type: binding; parameters: purchased ACROBiosystems (NCL); R&D Systems (MDM2) NUL-H5253 (NCL); E3-202-050 (MDM2); conditions: 400 nM 5′-biotin label, 6 μg/mL NCL + 6 μg/mL MDM2
# Procedure: (§2) 6 μg/mL recombinant human NCL and 6 μg/mL recombinant human MDM2 were mixed well and incubated at 4° C. for 7 h. Subsequently, 400 nM CRO, AS1411, or iSN04 labeled by biotin at the 5′ end was added, and the mixture was incubated at 4° C. for 6 h. Streptavidin agarose gel beads (purchased from cytiva, Cat. No.: 17511301) were added, and the mixture was further incubated at 4° C. overnight. The gel beads were washed 4 times with a TBST buffer, and an SDS-PAGE protein loading buffer (purchased from Beyotime, Cat. No.: P0015) was added. The mixture was heated to 100° C. and held for 10 min. After centrifugation, the supernatant was collected. The pull-down product was then detected by western blot assay.
# MDM2 [4] = target: T2, MDM2; assay: Biotin-oligonucleotide pull-down with recombinant proteins (MDM2); type: binding; parameters: purchased R&D Systems (MDM2); ACROBiosystems (NCL) E3-202-050 (MDM2); NUL-H5253 (NCL); conditions: 400 nM 5′-biotin label, 6 μg/mL NCL + 6 μg/mL MDM2
# Procedure: as §2
# Target sequence in this assay (P19338 whole entry partner): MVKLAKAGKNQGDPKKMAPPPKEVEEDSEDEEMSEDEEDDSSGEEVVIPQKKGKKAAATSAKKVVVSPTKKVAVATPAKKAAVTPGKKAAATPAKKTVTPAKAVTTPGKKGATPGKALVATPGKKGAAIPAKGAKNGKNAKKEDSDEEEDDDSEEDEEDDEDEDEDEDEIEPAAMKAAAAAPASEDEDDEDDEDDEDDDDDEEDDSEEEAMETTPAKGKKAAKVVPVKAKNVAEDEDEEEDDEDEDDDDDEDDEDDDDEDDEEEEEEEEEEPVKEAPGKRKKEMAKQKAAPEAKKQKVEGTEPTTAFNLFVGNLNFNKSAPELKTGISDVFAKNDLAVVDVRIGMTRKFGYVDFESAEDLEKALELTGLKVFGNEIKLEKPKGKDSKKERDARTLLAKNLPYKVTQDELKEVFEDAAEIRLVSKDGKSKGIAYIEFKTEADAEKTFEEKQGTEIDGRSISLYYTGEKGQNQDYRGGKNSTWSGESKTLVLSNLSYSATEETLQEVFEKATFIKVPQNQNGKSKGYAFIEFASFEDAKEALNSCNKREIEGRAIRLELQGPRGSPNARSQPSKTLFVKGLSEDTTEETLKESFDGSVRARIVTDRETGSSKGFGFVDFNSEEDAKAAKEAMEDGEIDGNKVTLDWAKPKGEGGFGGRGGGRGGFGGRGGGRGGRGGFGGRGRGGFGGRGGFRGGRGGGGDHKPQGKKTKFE
# Target sequence in this assay (Q00987 whole entry): as the sequence (Q00987 whole entry) above
# MDM2 [5] = target: T3, MDM2 (Homo sapiens, UniProt P19338+Q00987); assay: MDM2 protein degradation in A549 non-small cell lung cancer cells, western blot; type: cell-based; conditions: A549, 200 nM, 3 h
# T3 construct: endogenous in cells; host or cells: A549
# Procedure: (1) A549 non-small cell lung cancer cells were incubated with 200 nM AS1411-VH032, and corresponding cell samples were collected at time gradients of 0 h, 3 h, 6 h, 9 h, 12 h, and 24 h for protein extraction and subsequent western blot assay to detect protein degradation.
# (2) A549 non-small cell lung cancer cells were incubated with AS1411-VH032 at concentrations of 0 nM, 50 nM, 100 nM, 150 nM, 200 nM, and 250 nM. After 3 h, cell samples were collected for protein extraction and subsequent western blot assay to detect protein degradation.
# (3) A549 non-small cell lung cancer cells were incubated with 200 nM AS1411, VH032, AS1411-VH032, or AS1411+VH032. After 3 h, cell samples were collected for protein extraction and subsequent western blot assay to detect protein degradation.
# (4) A549 non-small cell lung cancer cells were incubated with 200 nM AS1411-VH032 for 3 h, and proteasome inhibitor MG132 was added. Cell samples were collected for protein extraction and subsequent western blot assay.
# (5) A549 non-small cell lung cancer cells were transfected with si-NC or si-NCL and subsequently incubated with 200 nM AS1411-VH032 for 3 h. Cell samples were collected for protein extraction and subsequent western blot assay.
# (1) A549 non-small cell lung cancer cells were incubated with 1000 nM AS1411-AS1411, and corresponding cell samples were collected at time gradients of 0 h, 3 h, 6 h, 9 h, 12 h, and 24 h for protein extraction and subsequent western blot assay to detect protein degradation.
# (2) A549 non-small cell lung cancer cells were incubated with AS1411-AS1411 at concentrations of 0 nM, 50 nM, 100 nM, 250 nM, 500 nM, and 1000 nM. After 12 h, cell samples were collected for protein extraction and subsequent western blot assay to detect protein degradation.
# (3) A549 non-small cell lung cancer cells were incubated with 1000 nM AS1411, AS1411-AS1411, or AS1411+AS1411. After 12 h, cell samples were collected for protein extraction and subsequent western blot assay to detect protein degradation. […]
# [6] = tested on: MCF 10A human normal mammary epithelial cells; assay: Toxicity to normal cells, cell apoptosis proportion by flow cytometer; type: cell-based; conditions: 0-5000 nM, 4 days, medium renewed every day
# Procedure: The toxicity of AS1411 to normal cells was compared with that of the small molecule ligand nutlin-3a of MDM2 to normal cells. AS1411 or nutlin-3a at different concentrations (0 nM, 500 nM, 1000 nM, and 5000 nM) was incubated with MCF 10A human normal mammary epithelial cells for 4 days, and the medium containing the respective concentrations of AS1411 or nutlin-3a was renewed every day. The cell apoptosis proportion was detected using a flow cytometer.
# [7] = G4 structural characteristics, N-methyl mesoporphyrin IX (NMM) fluorescent probe; type: physicochemical; conditions: 1 μM NMM
# Procedure: Both AS1411 and iSN04 are oligonucleotides specifically binding to NCL. The sequence of AS1411 is SEQ ID NO: 1, and the sequence of iSN04 is SEQ ID NO: 14. AS1411 contains a plurality of GGT motifs, and iSN04 contains one GGT motif. Whether AS1411 and iSN04 have stable G4 structural characteristics was determined. The experimental process was as follows: 5 μM NC (negative control, SEQ ID NO: 15), AS1411, or iSN04 was added to water, and the total volume was 100 μL. The mixture was heated at 95° C. for 7 min and then immediately incubated on ice for 3 min, followed by the addition of 2 μL of N-methyl mesoporphyrin IX (NMM) (purchased from MCE, Cat. No.: HY-133821) to make a final concentration of 1 μM. The resulting mixture was incubated at room temperature for 1 h in the dark. The fluorescence intensity was detected by a microplate reader, with an emission wavelength of 550-700 nm and an excitation wavelength of […].
# Guanine-rich DNA sequences can form more distinct G4 structural characteristics in the presence of metal ions (usually sodium and potassium ions). 5 μM NC (negative control, SEQ ID NO: 15), AS1411, or iSN04 was added to a 100 mM K^+ solution, and the total volume was 100 μL. The mixture was well mixed, heated at 95° C. for 7 min, and then immediately incubated on ice for 3 min, followed by the addition of 2 μL of N-methyl mesoporphyrin IX (NMM) (purchased from MCE, Cat. No.: HY-133821) to make a final concentration of 1 μM. The resulting mixture was incubated at room temperature for 1 h in the dark. The fluorescence intensity was detected by a microplate reader, with an emission wavelength of 550-700 nm and an excitation wavelength of […].
# [8] = target: T4, interaction between NCL and MDM2 (Homo sapiens, UniProt P19338); assay: Co-immunoprecipitation of NCL and MDM2 from HeLa cell lysate, western blot; type: binding; conditions: 0-20 μM, 4° C. 6 h, IP with antibody against NCL
# T4 construct: HeLa cervical cancer cells were lysed with an IP lysis solution; endogenous in cells; host or cells: HeLa cell lysate
# Procedure: Co-immunoprecipitation (Co-IP) is a classical method for the study of protein interactions based on the specific interaction between an antibody and an antigen. It is an effective method to determine the physiological interaction between two proteins in intact cells.
# HeLa cervical cancer cells were lysed with an IP lysis solution (purchased from Thermo Scientific, Cat. No.: 87788) and then incubated with AS 1411 or iSN04 at different concentrations (0 μM, 1 μM, 5 μM, 10 μM, and 20 μM) at 4° C. for 6 h. Subsequently, […] of an antibody against NCL was added, and the mixture was further incubated at 4° C. overnight. Protein A/G magnetic beads (purchased from Thermo Scientific, Cat. No.: 88802) were added, and the mixture was incubated with rotation at room temperature for 1.5 h. The bound NCL and its interacting proteins on the magnetic beads were washed with an IP lysis buffer (purchased from Thermo Scientific, Cat. No.: 87788), and an SDS-PAGE protein loading buffer (purchased from Beyotime, Cat. No.: P0015) was added. The mixture was heated to 100° C. and held for 10 min. The magnetic beads were adsorbed on a magnetic rack, and the supernatant was transferred into a new tube. Subsequently, western blot assay was performed to detect whether NCL bound to MDM2 and whether the binding was affected by AS 1411 or iSN04. […]
# T1 sequence (P19338 whole entry): as the sequence (P19338 whole entry partner) above
# T3 sequence (Q00987 whole entry): as the sequence (Q00987 whole entry) above
# T3 sequence (P19338 2-710 limits assumed): as the sequence (P19338 2-710 partner limits assumed) above
# T4 sequence (P19338 2-710 limits assumed): as the sequence (P19338 2-710 partner limits assumed) above
Compound,capture of NCL (NCL [1]),capture of MDM2 (MDM2 [2]),binding to NCL (NCL [3]),binding / recruitment of MDM2 (MDM2 [4]),protein level of MDM2 (MDM2 [5]),toxicity to normal cells (cell apoptosis proportion) [6],G4 structural characteristics (fluorescence signal intensity) ([7]; 5 μM in 100 mM K+ solution),G4 structural characteristics (fluorescence signal intensity) ([7]; 5 μM in water (no K+)),effect on the interaction between NCL and MDM2 [8]
"CRO: cytosine-rich oligonucleotide, negative control, SEQ ID NO: 13 (DNA CCTCCTCCTCCTTCTCCTCCTCCTCC; DNA, backbone and methylation of C not given here; further chemistry not fully specified)",cannot capture either NCL or MDM2,cannot capture either NCL or MDM2,cannot bind to either NCL or MDM2,cannot bind to either NCL or MDM2,–,–,–,–,–
CC(=O)N[C@H](C(=O)N1C[C@H](O)C[C@H]1C(=O)NCc1ccc(-c2scnc2C)cc1)C(C)(C)C [VH032],–,–,–,–,"neither AS1411, VH032, nor AS1411+VH032 can reduce the protein level of MDM2",–,–,–,–
COc1ccc(C2=N[C@@H](c3ccc(Cl)cc3)[C@@H](c3ccc(Cl)cc3)N2C(=O)N2CCNC(=O)C2)c(OC(C)C)c1 [nutlin-3a],–,–,–,–,–,can cause cell apoptosis,–,–,–
"iSN04: oligonucleotide specifically binding to NCL, SEQ ID NO: 14: 5′-AGATTAGGGTGAGGGTGA-3′ (DNA, backbone not given here)",can capture NCL only at a high concentration,cannot capture MDM2,can only bind to NCL,cannot recruit MDM2 depending on its interaction with NCL,–,–,1000-2000,No G4 structural characteristics were detected,blocks the binding of NCL to MDM2
